Series [1] deals with T1, Adenosine A2a receptor (Homo sapiens, UniProt P29274).
T1 construct: expressed in transfected cells; host or cells: CHO cell membranes
Kind of series: Adenosine receptor TR-FRET binding assay, A2a. Particulars: displacement of 100 nM CA200645, CHO cell membranes. A digest of the protocol:
(§1)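 Competition TR-FRET binding in CHO cell membranes expressing terbium-labelled human receptors, displacing fluorescent XAC (CA200645; 30 nM for A2b, 100 nM for A1, A2a, A3); 2 h at room temperature with saponin buffer, 1% DMSO. 665/620 nm ratio; non-specific with 10 μM XAC; Ki by Cheng–Prusoff from IC50.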
For orientation: Time-resolved FRET reads energy transfer from a long-lived donor to a nearby acceptor.

Series [2] deals with T2, Adenosine A2b receptor (Homo sapiens, UniProt P29275).
T2 construct: expressed in transfected cells; host or cells: CHO cell membranes
T2 sequence (P29275 1-332): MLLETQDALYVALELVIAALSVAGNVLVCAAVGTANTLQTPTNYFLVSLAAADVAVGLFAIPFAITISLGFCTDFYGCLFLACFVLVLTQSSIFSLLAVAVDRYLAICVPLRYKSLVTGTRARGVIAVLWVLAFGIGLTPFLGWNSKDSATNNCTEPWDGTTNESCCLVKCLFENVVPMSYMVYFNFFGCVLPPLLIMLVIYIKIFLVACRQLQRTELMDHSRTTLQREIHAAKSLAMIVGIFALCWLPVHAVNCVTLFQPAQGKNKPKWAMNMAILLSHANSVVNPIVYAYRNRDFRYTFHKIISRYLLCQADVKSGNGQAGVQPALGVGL
Description: Adenosine receptor TR-FRET binding assay, A2b. The note with it: Table 9, further testing; displacement of 30 nM CA200645, CHO cell membranes. A digest of the protocol: as §1

The target of series [3] is T3, Adenosine A1 receptor (Homo sapiens, UniProt P30542).
T3 construct: expressed in transfected cells; host or cells: CHO cell membranes
T3 sequence (P30542 1-326): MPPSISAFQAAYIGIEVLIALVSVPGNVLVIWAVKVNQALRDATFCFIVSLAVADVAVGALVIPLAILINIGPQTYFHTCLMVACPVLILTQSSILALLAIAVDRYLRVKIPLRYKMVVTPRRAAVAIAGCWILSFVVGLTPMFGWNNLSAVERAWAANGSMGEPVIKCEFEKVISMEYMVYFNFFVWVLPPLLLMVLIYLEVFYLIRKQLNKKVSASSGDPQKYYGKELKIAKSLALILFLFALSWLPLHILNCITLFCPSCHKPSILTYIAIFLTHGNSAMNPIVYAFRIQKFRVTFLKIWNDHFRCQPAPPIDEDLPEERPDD
Kind of series: Adenosine receptor TR-FRET binding assay, A1. Particulars: Table 9, further testing; displacement of 100 nM CA200645, CHO cell membranes. A digest of the protocol:
as §1

Series [4] concerns the target T4, Adenosine A3 receptor (Homo sapiens, UniProt P0DMS8).
T4 construct: expressed in transfected cells; host or cells: CHO cell membranes
T4 sequence (P0DMS8 1-318): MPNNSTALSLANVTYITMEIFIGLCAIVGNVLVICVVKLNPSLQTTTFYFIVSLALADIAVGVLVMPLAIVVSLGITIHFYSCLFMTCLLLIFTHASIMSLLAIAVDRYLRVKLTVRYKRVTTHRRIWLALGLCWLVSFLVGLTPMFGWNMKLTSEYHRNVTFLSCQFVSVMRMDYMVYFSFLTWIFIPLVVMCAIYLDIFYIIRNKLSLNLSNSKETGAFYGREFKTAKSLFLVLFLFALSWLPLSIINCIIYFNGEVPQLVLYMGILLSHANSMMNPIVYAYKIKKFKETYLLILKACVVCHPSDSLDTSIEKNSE
Description: Adenosine receptor TR-FRET binding assay, A3. Particulars: Table 9, further testing; displacement of 100 nM CA200645, CHO cell membranes; read-out: A3 Ki. In a few lines:
as §1

Series [5] has as its system Human PBMCs. Kind of series: CD3/CD28 stimulated IL-2 release NECA reversal assay. Format: cell-based. The method, then: Blood is drawn from healthy volunteers using sodium citrate as the anticoagulant (0.3% final concentration). […] 50 μl diluted compound mix is added to the cells, to obtain final concentrations of 1 ug/ml CD28 antibody, 1 uM NECA and 0.003-10 μM adenosine receptor antagonist. Assay plates are incubated for 24 hours at 37° C. in a humidified incubator.

In series [6] the test system is Human Whole Blood. Description: LPS stimulated TNF-alpha release NECA reversal assay. The format is cell-based. The note with it: 5 hours. As to the method: Blood is drawn from healthy volunteers using sodium citrate (0.3% final concentration) or heparin (19.5 U/ml) as the anticoagulant. A 15 minute incubation may be given with adenosine deaminase (2 u/ml) prior to plating the blood into assay plates, as indicated. 20 μl diluted compound mix containing LPS, NECA and adenosine receptor antagonist diluted in RPMI medium is added to U-bottom cell culture plates. 180 μl anticoagulated blood is added. Assay plates are incubated for 5 hours at 37° C. in a humidified incubator. Plasma obtained by centrifugation at 2000 rpm/10 mins is tested for TNF alpha levels using the human TNF alpha Tissue Culture Kit (Meso Scale Discovery). For bar charts, data is expressed as raw counts from a Mesoscale Sector Imager 6000.

The subject of series [7] is CD8+T Cells in Human Whole Blood. Description: Measurement of pCREB in CD8+ T cells. The note with it: T-cell, 1 h; heparinised human whole blood, rolipram, 3 μM NECA, 60 min, FACS. The format is cell-based. The method, then: Heparinised human whole blood was pre-incubated at 37° C. with serial dilutions of A2a antagonists for 20 min. and the phosphodiesterase inhibitor rolipram to amplify the pCREB response. The adenosine receptor agonist NECA is then added at a final concentration of 3 μM and following a 60 min incubation the blood is fixed and red blood cells lysed. White blood cells are isolated, permeabilized and stained with directly conjugated fluorescent antibodies to phospho-CREB (Alexa Fluor 488) and CD8 (Alexa Fluor 647) and the level of phospho-CREB in CD8+ T cells is measured by FACS using a BD Accuri C6 Flow Cytometer.

Series [8] relates to cancer. The note with it: monotherapy and in combination with atezolizumab, preliminary data, cited from earlier work.
The mark [9] stands for this setting: Homo sapiens, PBMC, read-out: IL-2 release NECA reversal IC50 (nM), 1 uM NECA, 24 hours.

These results are taken from US20200339548A1, “PYRIMIDINE DERIVATIVES AND THEIR USE FOR THE TREATMENT OF CANCER” (Adorx Therapeutics Limited, priority 2017, published 2020).

Like-named read-outs stand apart in the source and are kept apart here.

As usually defined, the Ki is a dissociation constant, usually derived from enzyme kinetics or from competition with a known ligand. Broadly, the IC50 is the concentration that gives 50% inhibition.

T1 sequence (P29274 whole entry): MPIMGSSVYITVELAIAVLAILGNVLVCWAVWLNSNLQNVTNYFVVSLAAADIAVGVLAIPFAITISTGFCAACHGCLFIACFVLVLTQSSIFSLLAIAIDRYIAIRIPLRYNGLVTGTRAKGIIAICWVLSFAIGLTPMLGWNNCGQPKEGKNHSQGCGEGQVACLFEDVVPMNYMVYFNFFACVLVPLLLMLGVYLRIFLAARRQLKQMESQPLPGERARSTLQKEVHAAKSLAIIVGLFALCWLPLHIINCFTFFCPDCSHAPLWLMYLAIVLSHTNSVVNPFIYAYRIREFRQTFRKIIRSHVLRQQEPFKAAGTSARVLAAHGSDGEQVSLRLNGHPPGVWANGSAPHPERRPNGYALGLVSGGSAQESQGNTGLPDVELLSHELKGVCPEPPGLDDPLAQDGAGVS

`Cc1cccnc1CNC(=O)c1cnc(-c2ccco2)nc1N` [Example 3, 4-Amino-2-(2-furyl)-N-[(3-methyl-2-pyridyl)methyl]pyrimidine-5-carboxamide]: the inhibition constant Ki in series [1] (Table 8, Cheng and Prusoff) came to 1.7 nM; in series [1] (Table 9, further testing), 3.3 nM; in series [2], 440 nM; in series [3] it was 1720 nM; in series [4], 908 nM. Moreover, the IC50 in series [5] (read-out: IL-2 release NECA reversal IC50, 1 uM NECA, 24 hours) is 77 nM; in series [6] it was 2290 nM; in series [7], 1210 nM.

On to `Cc1ccc(-c2nc(N)nc3c2nnn3Cc2cccc(CO[C@H]3CCOC3)n2)o1` [CPI-444], for which, in series [8] (early indications), the “CD8+T infiltration into tumour tissue” value is on record as “enhancing CD8^+T infiltration into tumour tissue” and the tumour size result is reported as “reducing tumour size”. Also, the tolerability entry in series [8] is reported as “well tolerated”.

For `Cc1cccnc1CNC(=O)c1c(N)nc(-c2ncco2)nc1OCCF` [Example 25, 4-Amino-6-(2-fluoroethoxy)-N-[(3-methyl-2-pyridyl)methyl]-2-oxazol-2-yl-pyrimidine-5-carboxamide], the Ki in series [1] (Table 9, further testing) worked out at 1.3 nM; in series [2], 77 nM; in series [3], 260 nM; in series [4], 62 nM. The IC50 was 11 nM in series [5] (setting [9]) and 106 nM in series [7].

Consider `COc1nc(-c2ccco2)nc(N)c1C(=O)NCc1c(Cl)cccc1Cl` [Example 18.3, 4-Amino-N-[(2,6-dichlorophenyl)methyl]-2-(2-furyl)-6-methoxy-pyrimidine-5-carboxamide], for which the Ki is 0.078 nM in series [1] (Table 9, further testing); 5.4 nM in series [2]; 18 nM in series [3]; 194 nM in series [4]. Also, the IC50 in series [5] (setting [9]) stood at 5 nM; in series [6], 476 nM; in series [7], 17 nM.

For `Cc1cccnc1CNC(=O)c1c(N)nc(-c2ccco2)nc1OC[C@H](C)O` [Example 20.11, 4-Amino-2-(2-furyl)-6-[(2S)-2-hydroxypropoxy]-N-[(3-methyl-2-pyridyl)methyl]pyrimidine-5-carboxamide], the Ki in series [1] (Table 9, further testing) amounted to 0.11 nM; in series [2] it was 80 nM; in series [3] it was 1.7 nM; in series [4], 11 nM. Moreover, the IC50 stood at 9 nM in series [5] (setting [9]), 221 nM in series [6] and 42 nM in series [7].

`Nc1nc(-c2cccc(F)c2)ncc1C(=O)NCc1cccc2cccnc12` [Example 10.13, 4-Amino-2-(3-fluorophenyl)-N-(8-quinolylmethyl)pyrimidine-5-carboxamide]: the inhibitory constant (Ki) was 4.7 nM in series [1] (Table 8, Cheng and Prusoff); 3.3 nM in series [1] (Table 9, further testing); 415 nM in series [2]; 38 nM in series [3]; 105 nM in series [4]. The half-inhibitory concentration (IC50) in series [5] (setting [9]) came to 926 nM.

As to `Cc1cccnc1CNC(=O)c1cnc(-c2cccc(F)c2)nc1N` [Example 4.3, 4-Amino-2-(3-fluorophenyl)-N-[(3-methyl-2-pyridyl)methyl]pyrimidine-5-carboxamide], the Ki in series [1] (Table 8, Cheng and Prusoff) came to 12 nM; in series [1] (Table 9, further testing) it was 12 nM; in series [2], 689 nM; in series [3], 49 nM; in series [4], 54 nM. Besides, the IC50 in series [5] (setting [9]) turned out to be 705 nM.
